Assay results taken from PMC7501440 (Heliyon, 2020).
Read-outs that look alike come from different tables or passages of the source.

Tests used:
[1] = target: T1, Human acetycholinesterase (hAChE) (Homo sapiens, UniProt P22303); test: hAChE inhibition assay, modified Ellman's colorimetric protocol; format: biochemical
T1 construct: purchased Sigma
Experimental: (§1) Human acetycholinesterase (hAChE) activities were determined with a slight modification of Ellman's colorimetric protocol. […] The bioactivity was determined by evaluating the hydrolysis rate of acetylthiocholine iodide (ATCI, 0.1 mM) with the final volume of 300 μL with a phosphate buffer of 180 μL of 100 mM, pH 7.3 and 2 mM DTNB 0.09U of hAChE (Sigma) were applied to this solution and pre-incubated for 45 min at room temperature. The 96-well microplate was read in a microplate reader (Ensight Multimode Reader, Perkin Elmer) at 412 nm after adding DTNB and ATCI. The enzyme kinetic parameters were determined by incubating the substrate at multiple concentrations with or without test inhibitor by double-reciprocal (Lineweaver- Burk) plots in 0.09U of hAChE. From the Lineweaver-Burk plots, the inhibition mechanisms were measured graphically. The kinetics were performed using a series of concentrations of 4a to 4e and substrate AChI at 412 nm. The quantitative datas were expressed as mean ± SD results from three independent experiments. GraphPad Prism version 6.01 (GraphPad Software Inc., San Diego, USA) was used for regression analysis to calculate the IC50 values and the enzyme kinetic parameters (Km, Vmax). The IC50 and enzyme kinetics values (Vmax and Km) were calculated by this formula IC50 Y = min + max-min/1+(X/EC50)^−Hillslops. . Vmax and Km Y = Vmax∗X/(Km + X).
(§2) An evaluation of the therapeutic potential in the treatment of AD of target compounds 4a, 4b, 4c, 4d and 4e were measured for AChE inhibitory activity using the Ellman method. To find the inhibitory effects, the test compounds were incubated with multiple concentrations of human AChE. […] These compounds were designed from the trans-tephrostachin. It was isolated and structuraly characterized from Tephrosia purpurea in our previous studies. To investigate the mechanism of trans-tephrostachin derivatives against AChE, kinetic studies were conducted for all compounds. Such plots presented a secondary plot of Km/Vmax versus test compound concentrations for the Km and Vmax. […] Compound 4a is a trans-tephrostachin which was isolated and structurally characterized previously.

[2] = target: T1, Human acetycholinesterase (hAChE); test: hAChE enzyme kinetics, Lineweaver-Burk and secondary plots; format: biochemical; details: for Vmax: hAChE in presence of inhibitor, without inhibitor 0.34 ± 0.01; for Inhibition type: hAChE, Lineweaver-Burk plots
Experimental: as §1, §2

AChE = tested on: AChE; design: method as in PMID 17962731; details: AChE inhibition; cited from earlier work
[3] = human AChE, Ellman method, average of three sets of assays, read-out: IC50 Concentration
[4] = human AChE, secondary plot of Km/Vmax versus compound concentration, read-out: Ki

T1 sequence (P22303 32-614): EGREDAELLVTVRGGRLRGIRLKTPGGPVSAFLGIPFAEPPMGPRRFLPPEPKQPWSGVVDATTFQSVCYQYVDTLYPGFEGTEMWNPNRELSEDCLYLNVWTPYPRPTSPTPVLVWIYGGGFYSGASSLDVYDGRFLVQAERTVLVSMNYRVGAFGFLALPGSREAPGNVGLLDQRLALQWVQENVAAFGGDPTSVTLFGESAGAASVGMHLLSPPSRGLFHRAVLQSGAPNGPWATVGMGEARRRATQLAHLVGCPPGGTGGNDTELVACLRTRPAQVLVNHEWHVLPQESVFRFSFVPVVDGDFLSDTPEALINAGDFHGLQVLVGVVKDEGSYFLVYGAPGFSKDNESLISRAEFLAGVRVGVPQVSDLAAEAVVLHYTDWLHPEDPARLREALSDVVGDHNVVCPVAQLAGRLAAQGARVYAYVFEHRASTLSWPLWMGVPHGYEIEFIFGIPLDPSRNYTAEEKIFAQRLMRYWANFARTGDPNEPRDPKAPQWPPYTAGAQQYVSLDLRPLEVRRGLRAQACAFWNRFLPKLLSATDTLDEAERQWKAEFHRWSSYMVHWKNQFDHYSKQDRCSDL

COc1cc(OC)c2c(=O)cc(-c3ccccc3)oc2c1/C=C/C(C)(C)O [Compound 4a, (E)-8-(3-hydroxy-3-methylbut-1-en-1-yl)-5,7-dimethoxy-2-phenyl-4H-chromen-4-one]
IC50 [1, 3]: 35 ± 1.2 µM
Vmax [2]: 0.13 ± 0.08
Inhibition type [2]: mixed type inhibition
Ki [2, 4]: 29.3 ± 7.2 µM

CCOc1cc(OCC)c2c(=O)cc(-c3ccccc3)oc2c1/C=C/C(C)(C)O [Compound 4b, (E)-5,7-diethoxy-8-(3-hydroxy-3-methylbut-1-en-1-yl)-2-phenyl-4H-chromen-4-one]
IC50 [1, 3]: 35.6 ± 2.8 µM
Vmax [2]: 0.34 ± 0.01
Inhibition type [2]: Competitive inhibition
Ki [2, 4]: 206 ± 12 µM

CC(C)(O)/C=C/c1c(OC(=O)c2ccccc2)cc(OC(=O)c2ccccc2)c2c(=O)cc(-c3ccccc3)oc12 [Compound 4c, (E)-8-(3-hydroxy-3-methylbut-1-en-1-yl)-4-oxo-2-phenyl-4H-chromene-5,7-diyl dibenzoate]
IC50 [1, 3]: 10.6 ± 2.8 µM
Vmax [2]: 0.14 ± 0.1
Inhibition type [2]: mixed type inhibition
Ki [2, 4]: 46.4 ± 9.5 µM

CC(C)(O)/C=C/c1c(OC(=O)c2ccc([N+](=O)[O-])cc2)cc(OC(=O)c2ccc([N+](=O)[O-])cc2)c2c(=O)cc(-c3ccccc3)oc12 [Compound 4d, (E)-8-(3-hydroxy-3-methylbut-1-en-1-yl)-4-oxo-2-phenyl-4H-chromene-5,7-diyl bis(4-nitrobenzoate)]
IC50 [1]: 10.3 µM
Ki [2]: 8.25 ± 1.7 µM
Vmax [2]: 0.15 ± 0.01
Inhibition type [2]: mixed type inhibition

CC(=O)Oc1cc(OC(C)=O)c2c(=O)cc(-c3ccccc3)oc2c1/C=C/C(C)(C)O [Compound 4e, (E)-8-(3-hydroxy-3-methylbut-1-en-1-yl)-4-oxo-2-phenyl-4H-chromene-5,7-diyl diacetate]
IC50 [1, 3]: 28.1 ± 2.1 µM
Vmax [2]: 0.36 ± 0.2
Inhibition type [2]: Competitive inhibition
Ki [2, 4]: 198 ± 10.1 µM

C[n+]1c2n(c(=O)c3ccccc31)CCc1c-2[nH]c2ccccc12 [dehydroevodiamine]
IC50 (AChE): 37.8 µM

C[C@@H]1O[C@@H](Oc2c(-c3ccc(O)c(O)c3)oc3cc(O)cc(O)c3c2=O)[C@H](O)[C@H](O)[C@H]1O [quercitrin]
IC50 (AChE): 66.9 µM

O=C(/C=C/c1ccc(O)cc1)OC[C@H]1O[C@@H](Oc2c(-c3ccc(O)cc3)oc3cc(O)cc(O)c3c2=O)[C@H](O)[C@@H](O)[C@@H]1O [tiliroside]
IC50 (AChE): 23.5 µM
